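The compound was tested at five concentrations on cells cultured in 96-well plates, with a 48-hour exposure period. GI50 is the concentration that inhibits growth by half.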 Calls of active or inactive are those of the source. Rule as the data show it: active = GI50 up to about 1.1 µM and inactive = higher.
What was measured:
Assay in all cases: inhibition of tumour cell growth, NCI panel, 48 h
[1] = tested on: DMS-273
[2] = tested on: HOP-62
[3] = tested on: OVCAR-4
[4] = tested on: NCI-H522
[5] = tested on: UACC-62
[6] = tested on: SK-MEL-5
[7] = tested on: CAKI-1
[8] = tested on: EKVX
[9] = tested on: HCC 2998
[10] = tested on: COLO 205
[11] = tested on: ACHN
[12] = tested on: SF-295
[13] = tested on: A498
[14] = tested on: SNB-19
[15] = tested on: UO-31
[16] = tested on: 786-0
[17] = tested on: DMS-114
[18] = tested on: RXF 393
[19] = tested on: Hs-578T
[20] = tested on: PC-3

O=C1CN=C(c2ccccc2)c2ccncc2N1
GI50 [1]: > 100 µM (inactive) | GI50 [2]: > 100 µM (inactive) | GI50 [3]: > 100 µM (inactive) | GI50 [4]: > 100 µM (inactive) | GI50 [5]: > 100 µM (inactive) | GI50 [6]: > 100 µM (inactive) | GI50 [7]: > 100 µM (inactive) | GI50 [8]: > 100 µM (inactive) | GI50 [9]: > 100 µM (inactive) | GI50 [10]: > 100 µM (inactive) | GI50 [11]: > 100 µM (inactive) | GI50 [12]: > 100 µM (inactive) | GI50 [13]: > 100 µM (inactive) | GI50 [14]: > 100 µM (inactive) | GI50 [15]: > 100 µM (inactive) | GI50 [16]: > 100 µM (inactive) | GI50 [17]: > 100 µM (inactive) | GI50 [18]: > 100 µM (inactive)

CN(C)c1ccc(/N=C2/C=CC(=C(C#N)C#N)c3ccccc32)cc1
GI50 [1]: 0.303 µM (active) | GI50 [2]: 0.468 µM (active) | GI50 [3]: 0.906 µM (active) | GI50 [4]: 0.0555 µM (active) | GI50 [5]: 0.386 µM (active) | GI50 [19]: 0.361 µM (active) | GI50 [6]: 0.133 µM (active) | GI50 [7]: 0.55 µM (active) | GI50 [8]: 0.955 µM (active) | GI50 [9]: 0.244 µM (active) | GI50 [20]: 0.183 µM (active) | GI50 [10]: 0.0957 µM (active) | GI50 [11]: 0.485 µM (active) | GI50 [12]: 0.291 µM (active) | GI50 [13]: 0.392 µM (active) | GI50 [14]: 0.536 µM (active) | GI50 [15]: 0.893 µM (active) | GI50 [16]: 0.385 µM (active) | GI50 [17]: 0.234 µM (active) | GI50 [18]: 0.46 µM (active)

Cc1cc(C)nc(NS(=O)(=O)c2ccc(NC(=O)COC(=O)c3cccc4c(=O)c5ccccc5[nH]c34)cc2)n1
GI50 [1]: 41.2 µM (inactive) | GI50 [2]: 23.7 µM (inactive) | GI50 [3]: 49.1 µM (inactive) | GI50 [4]: 27.2 µM (inactive) | GI50 [5]: 19.5 µM (inactive) | GI50 [6]: 40.6 µM (inactive) | GI50 [7]: > 100 µM (inactive) | GI50 [8]: 54.2 µM (inactive) | GI50 [9]: 21.1 µM (inactive) | GI50 [10]: 48.8 µM (inactive) | GI50 [11]: 47.5 µM (inactive) | GI50 [12]: 33.7 µM (inactive) | GI50 [13]: 30.3 µM (inactive) | GI50 [14]: 26.8 µM (inactive) | GI50 [15]: 61.9 µM (inactive) | GI50 [16]: 19.1 µM (inactive) | GI50 [17]: 56.5 µM (inactive) | GI50 [18]: 36.5 µM (inactive)

CC(=O)OC1CC[C@@]2(C)C(CC(OC3OC(CO)C(O)C(O)C3O)[C@]3(C)C2CCC24CC23CC[C@H]4C(C)CC(O)[C@@H](O)C(C)(C)O)C1(C)C (some centres undefined)
GI50 [1]: 18.2 µM (inactive) | GI50 [2]: 18.6 µM (inactive) | GI50 [3]: > 50 µM (inactive) | GI50 [4]: 8.63 µM (inactive) | GI50 [5]: 9.2 µM (inactive) | GI50 [6]: 8.93 µM (inactive) | GI50 [7]: 41.7 µM (inactive) | GI50 [8]: 16.3 µM (inactive) | GI50 [9]: 11.7 µM (inactive) | GI50 [10]: 9.4 µM (inactive) | GI50 [11]: > 50 µM (inactive) | GI50 [12]: 22.4 µM (inactive) | GI50 [13]: 16.8 µM (inactive) | GI50 [14]: 14.2 µM (inactive) | GI50 [15]: > 50 µM (inactive) | GI50 [16]: 13.1 µM (inactive) | GI50 [17]: 10.8 µM (inactive) | GI50 [18]: 12.5 µM (inactive)

COc1ccc(-c2nc(Sc3c([N+](=O)[O-])ncn3C)n[nH]2)cc1
GI50 [1]: 2.18 µM (inactive) | GI50 [2]: 19.1 µM (inactive) | GI50 [3]: 8.24 µM (inactive) | GI50 [4]: 2.27 µM (inactive) | GI50 [5]: 3.08 µM (inactive) | GI50 [6]: 2.65 µM (inactive) | GI50 [7]: 4.35 µM (inactive) | GI50 [8]: 20.7 µM (inactive) | GI50 [9]: 8.87 µM (inactive) | GI50 [10]: 1.82 µM (inactive) | GI50 [11]: 3.61 µM (inactive) | GI50 [12]: 3.33 µM (inactive) | GI50 [13]: 10.5 µM (inactive) | GI50 [14]: 13 µM (inactive) | GI50 [15]: 5.13 µM (inactive) | GI50 [16]: 3.27 µM (inactive) | GI50 [17]: 2.41 µM (inactive) | GI50 [18]: 1.77 µM (inactive)

CN(C)C(=N)NC(=S)N(C)C
GI50 [1]: > 100 µM (inactive) | GI50 [2]: > 100 µM (inactive) | GI50 [3]: > 100 µM (inactive) | GI50 [4]: > 100 µM (inactive) | GI50 [5]: > 100 µM (inactive) | GI50 [6]: > 100 µM (inactive) | GI50 [7]: > 100 µM (inactive) | GI50 [8]: > 100 µM (inactive) | GI50 [9]: > 100 µM (inactive) | GI50 [11]: > 100 µM (inactive) | GI50 [12]: > 100 µM (inactive) | GI50 [13]: > 100 µM (inactive) | GI50 [14]: > 100 µM (inactive) | GI50 [15]: > 100 µM (inactive) | GI50 [16]: > 100 µM (inactive) | GI50 [17]: > 100 µM (inactive) | GI50 [18]: > 100 µM (inactive)
